The test system of assay [1] is renal CCR1, CCR2, CCR5 and collagen I mRNA. Nature of the assay: Mouse UUO model: renal chemokine receptor and collagen I mRNA expression by real-time quantitative RT-PCR. The class given is in vivo, C57BL/6 mice. Particulars: 10 days following UUO. As for the experimental part:
(§1) Contralateral kidneys served as intraindividual controls.
From each mouse, a specimen of both kidneys was snap frozen in liquid nitrogen and stored at −80° C. Total RNA was prepared as described in Chomczynski, P. and Sacci, N., Anal. Biochem. (1987), Vol. 162, pp. 156-159. The RNA pellet was air-dried, dissolved in DEPC-treated water, and stored at −80° C. One μg of total RNA was subjected to random-primed (Hexamer, Roche) reverse transcription at 42° C. for 1 hour using a modified MMLV reverse transcriptase (Superscript, Life Technologies). Real time RT-PCR was performed on a TaqMan ABI 7700 Sequence Detection System (PE Biosystems) using a heat-activated Taq DNA polymerase (Amplitaq Gold, PE Biosystems). Thermal cycler conditions contained holds at 50° C. for 2 minutes and 95° C. for 10 minutes followed by 40 cycles of 95° C. for 15 seconds and 60° C. for 60 seconds. GAPDH was used as reference gene. The following oligonucleotide primers (300 nM) and probes (100 nM) (PE Biosystems) were used: (a) murine collagen 1α1 (gb X54876; bp 1984-2102); forward primer: 5′-[…]-3′ (SEQ ID NO: 1); reverse primer: 5′-[…]-3′ (SEQ ID NO: 2); internal fluorescence labeled probe (FAM): 5′-[…]-3′ (SEQ ID NO: 3); (b) murine GAPDH (gb M32599, bp 730-836); forward primer: 5′-[…]-3′ (SEQ ID NO: 4); reverse primer: 5′-[…]-3′ (SEQ ID NO: 5); internal fluorescence labeled probe (VIC): 5′-[…]-3′ (SEQ ID NO: 6); (c) murine CCR1 (gb NM_009912, bp 487-586); forward primer: 5′-[…]-3′ (SEQ ID NO: 7); reverse primer: 5′-[…]-3′ (SEQ ID NO: 8); internal fluorescence labeled probe (T1): 5′-[…]-3′ (SEQ ID NO: 9); (d) murine CCR2 (gb NM_009915, bp 984-1095); forward primer: 5′-[…]-3′ (SEQ ID NO: 10); reverse primer: 5′-[…]-3′ (SEQ ID NO: 11); internal fluorescence labeled probe (T1, FAM): 5′-[…]-3′ (SEQ ID NO: 12); and (e) murine CCR5 (gb D83648, bp 1065-1191); forward primer: 5′-[…]-3′ (SEQ ID NO: 13); reverse primer: 5′-[…]-3′ (SEQ ID NO: 14); internal fluorescence labeled probe (T1, FAM): 5′-[…]-3′ (SEQ ID NO: 15).

The subject of another assay is collagen I protein. Nature of the assay: Mouse UUO model: collagen I protein expression by Western blotting. The class given is in vivo, C57BL/6 mice. Conditions: 10 days following UUO (UUO BX 1-10 d), Western blot. As for the experimental part:
as §1
From each mouse, a specimen of both kidneys was snap frozen in liquid nitrogen and stored at −80° C. Kidneys were homogenized in RIPA buffer (50 mM Tris-HCl, pH 8.0, 1% Nonidet P40, 0.5% sodium deoxycholate, 150 mM NaCl, 0.1% SDS, complete Protease-inhibitor tablet (Roche)). Extracted proteins were boiled in loading buffer for 10 minutes, resolved by 8% SDS-PAGE under reducing conditions and transferred to an Immobilon-P membrane (Millipore). After blocking, the filter was incubated with the rabbit polyclonal anti-collagen I antibody (1:1000 in blocking solution, Chemicon) and immune complexes were visualized using horseradish peroxidase-conjugated goat anti-rabbit antibody (1:5000 in blocking solution, Jackson ImmunoResearch) and then processed for detection by enhanced chemiluminescence (ECL, Amersham Pharmacia).
For orientation: A western blot detects proteins with antibodies after separation by electrophoresis.

This is an account of results in patent US6812230B2, “Non-peptide CCR1 receptor antagonists for the treatment of progressive renal fibrosis” (Schering Aktiengesellschaft, priority 2001, dated 2004).

As for `C[C@@H]1CN(Cc2ccc(F)cc2)CCN1C(=O)COc1ccc(Cl)cc1NC(N)=O` [BX471, (2R)-1-((4-chloro-2-(ureido)phenoxy)methyl)carbonyl-2-methyl-4-(4-fluorobenzyl)piperazine], the “renal collagen I mRNA expression in obstructed kidneys vs vehicle” value in assay [1] (p<0.05) is on record as “significantly reduced”. For the same compound, in assay [1] (p=0.003), the “renal CCR5 mRNA expression in obstructed kidneys vs vehicle” value is given as “significantly reduced”. For the same compound, the “renal CCR1 mRNA expression in obstructed kidneys vs vehicle” value in assay [1] (p=0.005) was “significantly reduced”. Further, the “renal CCR2 mRNA expression in obstructed kidneys vs vehicle” value in assay [1] (p=0.07) is on record as “reduced, although this decrease did not reach statistical significance”. The “collagen I protein in renal extracts from the obstructed kidneys vs vehicle” value in the assay on collagen I protein was “decrease”.
